# Data reported in patent US20090285898A1, “COMBINATION OF DEHYDROEPIANDROSTERONE OR DEHYDROEPIANDROSTERONE-SULFATE WITH AN ANTICHOLINERGIC BRONCHODILATOR FOR TREATMENT OF ASTHMA OR CHRONIC OBSTRUCTIVE PULMONARY DISEASE” (priority 2003, published 2009).
# “And” between values parts separate entries of the source, which are not always exact repeats. Identical values can stand only once.
# Experiments:
# [1] = Nebulizer studies (Pari LC Plus, by-pass collector and impactor); settings: 0.12% NaCl
# Description: The nebulizer is filled with 5 mL of solution and nebulization is continued until the output became visually insignificant (4½ to 5 min.). Nebulizer solutions are tested using a California Instruments AS-6 6-stage impactor with a USP throat. The impactor is run at 30 L/min for 8 s to collect a sample following one minute of nebulization time. At all other times during the experiment, the aerosol is drawn through the by-pass collector at approximately 33 L/min. The collection apparatus, nebulizer, and impactor are rinsed with mobile phase and assayed by HPLC. […] This volume is selected as the practical upper limit for use in a clinical study.
# Human ASM cells = experiment: EGF induced ASM proliferation ([3H]-thymidine incorporation); assay type: cell-based; settings: for effect on EGF response (ASM proliferation): Mch 10 μM, atropine alone, DHEA-S in the presence or absence of Mch and atropine
# Description: Human ASM cells were obtained from the distal trachea of transplant donors in compliance with the University of Pennsylvania's Institutional Review Board. Distal trachealis was dissected free of connective tissue and enzymatically digested to yield approximately 1×10^4 human ASM cells. These cells were then grown to confluence in 10% fetal bovine serum and quiesced in serum-free media containing 1% bovine serum albumin for 24 hours. […] After the initial incubation, cells were then exposed to [^3H]-thymidine and DNA synthesis was measured over 24 hours using thymidine incorporation. The cells were scraped and placed on filters which were then counted using a beta counter. All experiments were repeated in a minimum of three human ASM cell lines. All conditions per experiment were run with six replicates.
# [2] = Solubility of DHEA-S in NaCl solutions; assay type: physicochemical; settings: 20 mM Na+; Ksp 1316 mM^2; 15° C.
# From the text: Inhalation of pure water can produce a cough stimulus. […] The temperature effect is weaker at high NaCl concentrations.
# [3] = Short-term solution stability of DHEA-S nebulizer formulation; assay type: physicochemical; settings: 10 mg/mL in 0.12% NaCl
# Description: Aliquots of this solution are filled into clear glass vials and stored at RT (24-26° C.) and at 40° C. The samples are checked daily for DHEA-S content, DHEA content, and appearance. For each time point, duplicate samples are withdrawn and diluted from each vial. […] The study is stopped on day three. […] The solution should easily be stable for the day of reconstitution in a clinical trial. The following section describes the aerosol properties of this formulation.
# [4] = Particle size after jet milling or spray drying (Malvern Mastersizer X, light microscope); assay type: physicochemical; settings: two batches
# Description: Approximately 1 g sample was passed through the jet mill, once, and approximately 2 g sample were passed through the jet mill twice. […] The resulting solution was sonicated for 3 minutes and appeared fully dispersed. The dispersed solutions were tested on a Malvern Mastersizer X with a small volume sampler (SVS) attachment. One sample of dispersed material was tested 5 times. The median particle size or D (v, 0.5) of unmilled material was 52.56 μm and the % RSD (relative standard deviation) was 7.61 for the 5 values. The D (v, 0.5) for a single pass through the jet mill was 3.90 μm and the % RSD was 1.27, and the D (v, 0.5) from a double pass through the jet mill 3.25 μm and the % RSD was 3.10.
# The solution was spray-dried with a B-191 Mini Spray-Drier (Buchi, Flawil, Switzerland) with an inlet temperature of 55° C., outlet temperature of 40° C., at 100% aspirator, at 10% pump, nitrogen flow at 40 mbar and spray flow at 600 units. The spray-dried product was suspended in hexane and Span85 surfactant added to reduce agglomeration. The dispersions were sonicated with cooling for 3-5 minutes for complete dispersion and the dispersed solutions tested on a Malvern Mastersizer X with a Small Volume Sampler (SVS) attachment. […] Visual examination by light microscope of the dispersions of each batch confirmed that spray drying produced small respirable size particles. […]
# HT-29 SF cells [5] = experiment: DHEA effect on cell growth; assay type: cell-based, human; settings: 0, 12.5, 25, 50, or 200 μM; 0-72 hours
# HT-29 SF cells [6] = experiment: Reversal of DHEA effect on cell cycle; assay type: cell-based, human; settings: 25 FM DHEA; supplemented medium; 48 and 72 hours
molecule,measurement,setting,value
"C[C@]12CC[C@H](OS(=O)(=O)[O-])CC1=CC[C@@H]1[C@@H]2CC[C@]2(C)C(=O)CC[C@@H]12.[Na+] [DHEA-S, sodium dehydroepiandrostenone sulfate]",highest solution concentration for clinical trial formulation (no precipitate during nebulization),[1],approximately 7.5 mg/mL
same,effect on EGF response (ASM proliferation),Human ASM cells,attenuate the EGF response
same,calculated DHEA-S solution concentration,[2],27.5 mM
same,solution appearance on storage,[3]; 40° C.,became cloudy after two days of storage
same,solution appearance on storage,[3]; RT (24-26° C.),slight precipitate is observed on the third day
CN1[C@@H]2CC[C@H]1C[C@@H](OC(=O)C(CO)c1ccccc1)C2 (some centres unmarked) [atropine],effect on Mch augmentation of EGF response,Human ASM cells; EGF plus 10 μM Mch,reverse the effects of Mch
same,effect on EGF response (ASM proliferation),Human ASM cells,no effect on EGF response
CC(=O)OC(C)C[N+](C)(C)C (centres unmarked),effect on EGF response (ASM proliferation),Human ASM cells,further augmented
C[C@]12CC[C@H](OS(=O)(=O)[O-])CC1=CC[C@@H]1[C@@H]2CC[C@]2(C)C(=O)CC[C@@H]12.[Na+] [Anhydrous DHEA-S],mean particle size of spray dried material,[4]; Malvern Mastersizer X,5.07±0.70 μm and 6.66±0.91 μm
same,mean particle size of spray dried material,[4]; visual examination by light microscope,2.4 μm and 2.0 μm
"EGF: growth factor used to induce DNA synthesis in human ASM cells (NSDSECPLSHDGYCLHDGVCMYIEALDKYACNCVVGYIGERCQYRDLKWWELR; Epidermal growth factor; UniProt P01133 971-1023, looked up)",increase in ASM proliferation,"Human ASM cells; EGF (1 ng/ml), thymidine incorporation",8 fold
"C[C@]12CC[C@H](O)CC1=CC[C@@H]1[C@@H]2CC[C@]2(C)C(=O)CC[C@@H]12 [DHEA, 3β-hydroxyandrost-5-en-17-one]",effect on growth of HT-29 SF cells,HT-29 SF cells [5],time- and dose-dependent inhibition of growth
"C[C@@](O)(CCO)CC(=O)O [MVA, mevalonic acid]",prevention of DHEA-induced S phase depletion (G1 arrest),HT-29 SF cells [6],partially prevented this effect in the initial 48 hours but not after 72 hours
"CC(C)CCC[C@@H](C)[C@H]1CC[C@H]2[C@@H]3CC=C4C[C@@H](O)CC[C@]4(C)[C@H]3CC[C@]12C [CH, cholesterol]",prevention of DHEA-induced S phase depletion (G1 arrest),HT-29 SF cells [6],very little effect at 48 hours and no effect at 72 hours
